How the values were obtained:
[1] = tested on: Acinetobacter baumannii; test: Transmission electron microscope observation; type: cell-based; details: 37° C., 2 hours, complex 1,000 μg/mL, mixture 500 + 500 μg/mL; for morphological changes (TEM): lysozyme alone 500 μg/mL, chitosan alone 500 μg/mL
Method: (§1) As a control, physiological saline (0.9% NaCl solution) was used.
(§2) Then, centrifugation was performed, and the resultant pellets were washed with physiological saline (0.9% NaCl), fixed in a 1.0% buffered osmium tetroxide buffer solution in a 0.1 M phosphate buffered saline for 1 hour, embedded in 2.0% agar, dehydrated with ethanol, and then embedded in Epon 812 (TAAB Laboratories Equipment Ltd.). Ultrathin sections of 70 nm were collected on a copper grid, double-stained with uranyl acetate and lead citrate, and observed with a transmission electron microscope (H-7100) at 75 kV.

[2] = tested on: Pseudomonas aeruginosa (NBRC 13275); test: Transmission electron microscope observation; type: cell-based; details: 37° C., 2 hours, complex 1,000 μg/mL, mixture 500 + 500 μg/mL; for morphological changes (TEM): lysozyme alone 500 μg/mL, chitosan alone 500 μg/mL
Method: as §1, §2

[3] = tested on: Pseudomonas aeruginosa (NBRC 13275); test: Confocal laser scanning microscope observation (LIVE/DEAD BacLight); type: cell-based; details: final 1,000 μg/mL, 37° C., 2 hours
Method: (§3) As a control, physiological saline (0.9% NaCl solution) was used. To 500 μL of these solutions, 500 μL of Pseudomonas aeruginosa bacterial suspension and Acinetobacter bacterial suspension prepared in the same manner as in Experimental Example 1 above was added, and incubated at 37° C. for 2 hours. Then, 3 μL of LIVE/DEAD BacLight reagent (a mixture of SYTO 9 and propidium iodide (PI), which stain nucleic acids) was added and further incubated for 15 minutes at room temperature. SYTO 9 with green fluorescence labels all bacteria, while PI with red fluorescence permeates only bacteria with damaged plasma membranes, and the presence of both dyes attenuates the fluorescence of SYTO 9.

[4] = tested on: Acinetobacter (JCM 6841); test: ONPG assay (intracellular membrane permeability test); type: cell-based, Acinetobacter baumannii; details: for absorbance 420 nm (ONPG), time course: up to 100 minutes
Method: (§4) Intracellular membrane permeability was determined by ONPG assay (o-nitrophenyl-β-D-galactopyranoside (ONPG) assay). When the cell membrane is damaged, intracellular enzymes, including β-galactosidase, leak out of the cell. ONPG is normally colorless, but is hydrolyzed by β-galactosidase to galactose and o-nitrophenol, resulting in an increase in absorbance at 420 nm. The intracellular membrane permeability of bacteria can be determined by measuring the activity of cytosolic β-galactosidase released from the bacteria using ONPG as a substrate.
(§5) Specifically, evaluation on whether substances with absorption at 420 nm were released was performed by measuring the absorption at 420 nm with the spectrophotometer ASV11D. […] As a control, a 0.5% NaCl solution was used. The Pseudomonas aeruginosa bacterial suspension and Acinetobacter bacterial suspension prepared in the same manner as in Experimental Example 1 were resuspended in a 0.5% NaCl solution, and prepared with such a final suspension concentration that the absorbance at 420 nm was 1.2. […] The increase in absorbance at 420 nm (A420nm) was evaluated by performing triplicate measurements.

[5] = tested on: rabbit erythrocytes
Method: Each resulting mixed solution was incubated at 37° C. for 1 hour, and centrifuged at 1500 rpm for 10 minutes, and the supernatant was collected. […] Each absorbance (OD) was measured at 545 nm to calculate the hemolytic rate by using the following formula. The absorbance value at 545 nm was expressed as the average and SEM (standard error of the sample mean) of triplicate measurements.

[6] = tested on: Acinetobacter (JCM 6841); test: Confocal laser scanning microscope observation (LIVE/DEAD BacLight); type: cell-based, Acinetobacter baumannii; details: final 1,000 μg/mL, 37° C., 2 hours
Method: as §3

[7] = tested on: Pseudomonas aeruginosa (NBRC 13275); test: Growth suppression effect test at various concentrations (Experimental Example 4); type: cell-based; details: 2,000 μg/mL, 5,000 μg/mL and 10,000 μg/mL in TSB, 6 hours
Method: (§6) As a control, TSB medium without additives was used. The Acinetobacter bacterial suspension or Pseudomonas aeruginosa bacterial suspension was prepared in the same way as in Experimental Example 1 described above. […] After 6 hours, 0.1 mL of each solution was added to a solid medium (Mueller-Hinton medium) and allowed to grow overnight, and then the bacteria count was measured. The bacterial suspensions were tested on each solution 18 times for Pseudomonas aeruginosa (NBRC 13275) and 8 times each for Pseudomonas aeruginosa (PAO1) and Acinetobacter by duplicate (mean of triplicate measurements and SEM (standard error of sample mean)) in independent experiments.

[8] = tested on: Acinetobacter baumannii (JCM 6841); test: Bacteria-killing test (Experimental Example 1); type: cell-based; details: 2,000 μg/mL in physiological saline, 37° C., at 60 minutes and 120 minutes, versus control
Method: The bacteria-killing property of the lysozyme-chitosan complex (LYZOX (registered trademark)) against Acinetobacter and the like was measured in comparison with a mixture of lysozyme and chitosan and the like.
(§7) As a control, physiological saline (0.9% NaCl solution) was used. The Acinetobacter bacterial suspension or Pseudomonas aeruginosa bacterial suspension was prepared as follows. Pseudomonas aeruginosa (NBRC 13275 or PAO1) or Acinetobacter baumannii (JCM 6841) was grown overnight at 37° C. in trypsin soy broth (TSB), centrifuged during the logarithmic growth phase, and collected, and the bacteria were resuspended in physiological saline (0.9% NaCl), with such a final suspension concentration that the absorbance was 1.0 (10^8 to 10^9 CFU/mL) at 600 nm.
(§8) At 0 minutes, 30 minutes, 60 minutes, and 120 minutes after the start of incubation, 0.1 mL of each solution was added to a solid medium (Mueller-Hinton medium) for overnight growth, and then the bacteria count was measured. The test of the bacterial suspensions against each solution was performed three times and measured.

[9] = tested on: Pseudomonas aeruginosa (NBRC 13275); test: Bacteria-killing test at various concentrations (Experimental Example 2); type: cell-based; details: 200 μg/mL, 2,000 μg/mL and 10,000 μg/mL in physiological saline
Method: as §7, §8

[10] = tested on: Pseudomonas aeruginosa (NBRC 13275); test: Cell membrane integrity test (absorbance at 260 nm); type: cell-based
Source text: (§9) The measurement of absorbance at 260 nm (A260nm) was used to estimate the amount of nucleic acid released from the cytoplasm, thereby evaluating the integrity of the cell membrane. When a bacterial cell membrane is compromised by an antibacterial agent, intracellular components are released into the extracellular space. The measurement of absorbance at 260 nm is used to estimate the amount of DNA and RNA released from the cytoplasm.
(§10) Specifically, evaluation on whether substances with absorption at 260 nm were released from the bacteria was performed by measuring the absorption at 260 nm with ND-1000 manufactured by Thermo Fisher Scientific. […] As a control, a 0.5% NaCl solution was used. The Pseudomonas aeruginosa bacterial suspension and Acinetobacter bacterial suspension prepared in the same manner as in Experimental Example 1 were resuspended in a 0.5% NaCl solution, and prepared with such a final suspension concentration that the absorbance at 420 nm was 0.7. […] At 20 minutes, 40 minutes, 60 minutes, 80 minutes, 100 minutes, and 120 minutes after the start of incubation, each solution was subjected to a 0.22 μm syringe filter to remove bacteria, and the absorbance at 260 nm (A260nm) was measured. The results for absorbance, expressed as the average of triplicate measurements and SEM (standard error of sample mean), are shown in FIGS. 4A and 4B.

[11] = tested on: Pseudomonas aeruginosa (NBRC 13275); test: ONPG assay (intracellular membrane permeability test); type: cell-based; details: final 200, 2,000 and 5,000 μg/mL
Method: as §4, §5

[12] = tested on: Acinetobacter baumannii; test: Drug resistance acquisition test (MIC after repeated subculture); type: cell-based; details: after 10 subcultures at ½ MIC in LB medium
Method: (§11) The MIC was defined as the minimum concentration of the reagent without visual turbidity observed after 18 hours and 24 hours of evaluation. […] The bacteria that were not subcultured was evaluated as a control (CTL in FIGS. 10A and 10B). MIC measurements were repeated 10 times to evaluate the development of drug resistance in these bacteria.

[13] = tested on: Pseudomonas aeruginosa (NBRC 13275 and PAO 1); test: as above; type: cell-based; details: after 10 subcultures at ½ MIC in LB medium
Method: as §11

[14] = tested on: Acinetobacter (JCM 6841); test: Cell membrane integrity test (absorbance at 260 nm); type: cell-based, Acinetobacter baumannii
Source text: as §9, §10

[15] = tested on: Acinetobacter baumannii (JCM 6841); test: Growth suppression effect test (Experimental Example 3); type: cell-based; details: 2,000 μg/mL in TSB, 37° C., 6 hours, versus control
Method: as §6

[16] = final 2,000, 5,000 and 10,000 μg/mL, 0.5% NaCl, 37° C.
[17] = various concentrations, 20 to 120 minutes

“lysozyme alone: lysozyme (manufactured by Nippon Biocon Ltd.), enzyme that hydrolyzes mucopolysaccharides [reference compound]” was tested, and the “morphological changes (TEM)” value [1] was “formed spheroplasts” and the “morphological changes (TEM)” value [2] was “formed spheroplasts”.
In the case of “lysozyme-chitosan complex: Commercial LYZOX powder: chicken-derived lysozyme (about 14,000 Da) and about 5,000 Da water-soluble chitosan, mass ratio 1:1, bound by Maillard reaction”, the “aggregation of bacterial cells (CLSM)” value [3] is reported as “aggregated to form clusters”, the “bacterial cells with damaged membranes (red fluorescence, CLSM)” value [3] is reported as “more bacterial cells with damaged membranes than in the corresponding control” and the “absorbance 420 nm (ONPG), time course” value ([4]; 200 μg/mL) is reported as “increased in the first 10 minutes and remained constant thereafter”. The “absorbance 420 nm (ONPG), time course” value ([4]; 2,000 μg/mL and 5,000 μg/mL) was “increased rapidly at first and then slowly until 100 minutes”, the “effect on the inner membrane” value ([4]; ONPG assay) was “disrupt the inner membrane of Acinetobacter” and the “absorbance 420 nm (ONPG), dependence on concentration” value ([4]; final 200, 2,000 and 5,000 μg/mL) was “increased in a concentration-dependent manner”. The “hemolysis of rabbit erythrocytes” value [5] was “almost did not hemolyze”, the “aggregation of bacterial cells (CLSM)” value [6] was “less aggregation of bacterial cells than Pseudomonas aeruginosa” and the “bacterial cells with damaged membranes (red fluorescence, CLSM)” value [6] was “more bacterial cells with damaged membranes than in the corresponding control”. The “growth suppression effect (bacteria count)” value [7] was “concentration-dependent growth suppression effect”, the “bacteria count (bacteria-killing)” value [8] was “significantly reduced the bacteria count than the control” and the “bacteria-killing activity (bacteria count)” value [9] was “concentration-dependent bacteria-killing activity”. The “absorbance 260 nm, dependence on concentration” value [10, 16] was “increased in a concentration-dependent manner”, the “absorbance 260 nm, time course” value [10, 17] was “increased rapidly in the first 20 minutes, and then the rate of increase decreased until 120 minutes” and the “absorbance 420 nm (ONPG), dependence on concentration” value [11] was “increased in a concentration-dependent manner”. The “acquisition of drug resistance (change of MIC)” value [12] was “did not acquire resistance”, the “acquisition of drug resistance (change of MIC)” value [13] was “did not acquire resistance” and the “morphological changes (TEM)” value [1] was “spherical cells with outer membrane vesicles”. For the same substance, the “cell walls and intracellular contents (TEM)” value [1] was “bacterial cell walls were disrupted and the intracellular contents were released from the cells”, the “morphological changes (TEM)” value [2] was “spherical cells with outer membrane vesicles” and the “cell walls and intracellular contents (TEM)” value [2] was “bacterial cell walls were disrupted and the intracellular contents were released from the cells”. For the same substance, the “absorbance 260 nm, dependence on concentration” value [14, 16] was “increased in a concentration-dependent manner”, the “absorbance 260 nm compared to the control” value ([14]; final 2,000, 5,000 and 10,000 μg/mL, 20 to 120 minutes) was “higher absorbance in Acinetobacter compared to the control” and the “absorbance 260 nm, time course” value [14, 17] was “increased rapidly in the first 20 minutes, and then the rate of increase decreased until 120 minutes”. For the same substance, the “bacteria count (growth suppression)” value [15] was “significantly reduced the bacteria count than the control”.
“poly-β1→4-glucosamine [chitosan alone, reference compound]” was tested, and the “morphological changes (TEM)” value [1] was “formed numerous vesicles on their surfaces” and the “morphological changes (TEM)” value [2] was “formed numerous vesicles on their surfaces”.

Reference: patent US20220233656A1, “ANTIBACTERIAL COMPOSITION” (NATIONAL UNIVERSITY CORPORATION TOKYO MEDICAL AND DENTAL …, priority 2019, published 2022)
